This note sets out measurements from ChEMBL document CHEMBL4011592, “Synthesis and evaluation of 7-substituted-5,6-dihydrobenzo[c]acridine derivatives as new c-KIT promoter G-quadruplex binding ligands” (Eur J Med Chem, 2017).

Activity calls are given as the source filed them. The rule behind the calls is not given here.

Broadly, the ΔTm is the shift of the melting midpoint relative to a reference. A word on the Kd: it is the constant that tells how readily two partners part at equilibrium. Low readings indicate tighter binding, high ones weaker binding. Usually IC50 stands for the concentration at which inhibition is half-maximal. Low readings indicate inhibition by little substance, high ones a need for much substance.

A short description of test [1]: Binding affinity to 5'-FAM/3'-TAMARA labelled c-KIT1 G-quadruplex DNA (unknown origin) assessed as change in melting temperature at 2 uM by FRET assay.
The nature of test [2]: Binding affinity to F10T duplex DNA (unknown origin) assessed as change in melting temperature at 2 uM by FRET assay.
Test [3] is described as follows: Binding affinity to 5'-FAM/3'-TAMARA labelled c-KIT1 G-quadruplex DNA (unknown origin) assessed as change in melting temperature at 1 uM by FRET assay.
Test [4] is described as follows: Binding affinity to 5'-FAM/3'-TAMARA labelled c-KIT2 G-quadruplex DNA (unknown origin) assessed as change in melting temperature at 1 uM by FRET assay.
A short description of test [5]: Binding affinity to F10T duplex DNA (unknown origin) assessed as change in melting temperature at 1 uM by FRET assay.
Test [6] is described as follows: Binding affinity to biotinylated c-KIT1 G-quadruplex DNA (unknown origin) by SPR assay. Background: In SPR one partner is held on a chip, and binding of the other changes the refractive index at the surface.
The nature of test [7]: Binding affinity to biotinylated duplex DNA (unknown origin) by SPR assay.
A short description of test [8]: Selectivity ratio of Kd for biotinylated duplex DNA (unknown origin) to Kd for biotinylated c-KIT1 G-quadruplex DNA (unknown origin).
The subject of another test is K562. The experiment in a line: Cytotoxicity against human K562 cells after 48 hrs by MTT assay. Particulars: K562, 48 h. In kind it is functional, cell-based. In general terms: Tetrazolium assays rely on reduction of a dye to a coloured formazan, in cell work by metabolically active cells.
For the next test, the system named is A549. The experiment in a line: Cytotoxicity against human A549 cells after 48 hrs by MTT assay. The class given is functional, cell-based. Particulars: A549, 48 h.
The subject of a further test is HeLa. Put plainly: Cytotoxicity against human HeLa cells after 48 hrs by MTT assay. In kind it is functional, cell-based.
The test system of a further test is BJ. Put plainly: Cytotoxicity against human BJ cells after 48 hrs by MTT assay. The class given is cell-based.
Test [9] in a line: Binding affinity to 5'-FAM/3'-TAMARA labelled c-KIT1 G-quadruplex DNA (unknown origin) assessed as change in melting temperature at 2 uM in presence ds26 DNA by FRET assay.

`CCN(CC)CCCNC(=O)c1c2c(nc3ccccc13)-c1cc(OC)c(OC)cc1CC2`: the thermal shift (ΔTm) turned out to be 6.6 °C in [1]; 0.5 °C in test [2]; 3.4 °C in test [3]; 0.6 °C in [4]; 0.5 °C in test [5]. For the same molecule, the Kd in test [6] is 2.8 µM; in [7], greater than 20 µM. Moreover, the Selectivity ratio in test [8] was greater than 7.1. Further, the IC50 in the test with K562, in the test with A549, with HeLa and in the test on BJ was greater than 50 µM throughout.
For the molecule `CCN(CC)CCNc1c2c([n+](C)c3ccccc13)-c1cc(OC)c(OC)cc1CC2`, the ΔTm in test [1] worked out at 10.3 °C; in test [2], 0.5 °C; in test [3], 8.5 °C; in test [4], 3.3 °C; in test [5], 0.9 °C. The outcome in test [9] was Active. For the same molecule, the dissociation constant Kd in test [6] is 3.9 µM; in test [7] it was greater than 20 µM. Further, the Selectivity ratio in test [8] is greater than 5.1. Besides, the concentration for half-maximal inhibition (IC50) is 24.9 µM in the test on K562, greater than 50 µM with A549, greater than 50 µM with HeLa and greater than 50 µM in the test on BJ.
In the case of `COc1cc2c(cc1OC)-c1nc3ccccc3c(C(=O)NCCN3CCCC3)c1CC2`, the ΔTm in [1] is 3.4 °C; in [2], 0.6 °C; in test [3], 2.2 °C; in test [4], 0.6 °C; in test [5], 0.1 °C. Further, the dissociation constant Kd in test [6] and in test [7] was greater than 20 µM each time. In addition, the 50% inhibitory concentration (IC50) in the test with K562, with A549, in the test on HeLa and in the test on BJ was greater than 50 µM each time.
As to `COc1cc2c(cc1OC)-c1nc3ccccc3c(NCCN3CCCC3)c1CC2`, the ΔTm was found to be 16.7 °C in test [1]; 1.2 °C in test [2]; 11.1 °C in test [3]; 6.2 °C in test [4]; 0.8 °C in [5]. The outcome in [9] was Active. In addition, the Kd in [6] came to 2.5 µM; in test [7], 7.7 µM. Besides, in test [8], the Selectivity ratio stood at 3.1. Moreover, the IC50 in the test on K562 was 4.8 µM; with A549, 2.8 µM; with HeLa, 4.6 µM; with BJ it was 5.2 µM.
On to `COc1cc2c(cc1OC)-c1nc3ccccc3c(NCCN3CCCCC3)c1CC2`, for which the ΔTm in test [1] stood at 7.8 °C; in test [2], 0.2 °C; in test [3] it was 4.7 °C; in test [4], 2.6 °C; in [5] it was 0.1 °C. The result in [9] was Active. Moreover, the figures for the Kd in [6] and in [7] were 7.8 µM and greater than 20 µM, respectively. The Selectivity ratio in test [8] was greater than 2.6. The IC50 was 13.1 µM with K562, 18.5 µM with A549, 39.7 µM in the test on HeLa and greater than 50 µM in the test with BJ.
In the case of `CCN(CC)CCNc1c2c(nc3ccccc13)-c1cc(OC)c(OC)cc1CC2`, the shift in melting temperature (ΔTm) in test [1] came to 15.7 °C; in test [2] it was 0.9 °C; in test [3] it was 9.8 °C; in test [4], 6.5 °C; in test [5] it was 0.6 °C. The outcome in test [9] was Active. Also, the Kd in test [6] came to 2.7 µM; in test [7] it was 5.9 µM. Besides, the Selectivity ratio in test [8] was 2.2. Besides, the IC50 came out at 8 µM with K562, 5.8 µM with A549, 17.9 µM with HeLa and 22.7 µM in the test on BJ.
As for `COc1cc2c(cc1OC)-c1c(c(NCCN3CCCC3)c3ccccc3[n+]1C)CC2`, the ΔTm in test [1] stood at 11.3 °C; in test [2], 0.4 °C; in test [3], 7.7 °C; in test [4] it was 3.7 °C; in test [5], 0.9 °C. Besides, the outcome in test [9] was Active. The figures for the Kd in test [6] and in [7] were 2.2 µM and greater than 20 µM, respectively. In test [8], the Selectivity ratio was greater than 9.1. The concentration for half-maximal inhibition (IC50) in the test with K562 was greater than 50 µM; with A549, 36 µM; in the test on HeLa it was 44.3 µM; in the test with BJ, 36 µM.
Take `COc1cc2c(cc1OC)-c1nc3ccccc3c(Cl)c1CC2`: the thermal shift (ΔTm) in test [1] worked out at 0.2 °C; in test [2] it was 0.1 °C; in test [3] it was 0.1 °C; in [4] it was 0.1 °C; in test [5], 0.7 °C. The Kd in test [6] and in test [7] was greater than 20 µM each time.
Take `COc1cc2c(cc1OC)-c1nc3ccccc3c(C(=O)NCCCN3CCCCC3)c1CC2`: the shift in melting temperature (ΔTm) is 5.2 °C in [1]; 0.6 °C in test [2]; 3.3 °C in [3]; 0.6 °C in test [4]; 0.3 °C in [5]. The equilibrium dissociation constant (Kd) in test [6] was 3.7 µM; in [7] it was greater than 20 µM. For the same molecule, the Selectivity ratio in [8] is greater than 5.4. The 50% inhibitory concentration (IC50) with K562, in the test on A549, in the test with HeLa and with BJ was greater than 50 µM each time.
For the molecule `COc1cc2c(cc1OC)-c1nc3ccccc3c(NCCN3CCN(C)CC3)c1CC2`, the thermal shift (ΔTm) in test [1] is 22.6 °C; in test [2] it was 2 °C; in test [3] it was 17.4 °C; in test [4], 9 °C; in test [5], 1.7 °C. Also, the result in test [9] was Active. In addition, the Kd in test [6] was determined as 3.3 µM; in [7], 17 µM. Moreover, the Selectivity ratio in test [8] came out at 5.2. The IC50 with K562 worked out at 22.9 µM; in the test on A549 it was 3 µM; in the test with HeLa it was 5.3 µM; in the test with BJ, 7.9 µM.
As to `COc1cc2c(cc1OC)-c1c(c(NCCCN3CCCC3)c3ccccc3[n+]1C)CC2`, the ΔTm was determined as 14 °C in [1]; 0.3 °C in test [2]; 10.7 °C in [3]; 4.7 °C in test [4]; 1.1 °C in test [5]. In addition, the result in test [9] was Active. Also, the dissociation constant Kd was 3.3 µM in test [6] and greater than 20 µM in [7]. Further, the Selectivity ratio in test [8] was greater than 6.1. The IC50 is 19.2 µM with K562, greater than 50 µM with A549, greater than 50 µM in the test with HeLa and greater than 50 µM in the test with BJ.
On to `COc1cc2c(cc1OC)-c1c(cc3c(OCCCN4CCCCC4)c(OC)ccc3[n+]1C)CC2`, for which the shift in melting temperature (ΔTm) in [1] worked out at 12.2 °C; in test [2], 0.7 °C; in [3] it was 4.4 °C; in [4], 4.4 °C; in test [5] it was 0.2 °C. In addition, the outcome in test [9] was Active. The equilibrium dissociation constant (Kd) in [6] is 2.8 µM; in test [7], greater than 20 µM. For the same molecule, in test [8], the Selectivity ratio is greater than 7.1.
Take `COc1cc2c(cc1OC)-c1nc3ccccc3c(NCCN(C)C)c1CC2`: the ΔTm in test [1] was 16.4 °C; in test [2], 0.9 °C; in test [3], 12.1 °C; in [4], 6.7 °C; in test [5], 0.7 °C. Also, in test [9], the outcome was Active. For the same molecule, the equilibrium dissociation constant (Kd) was found to be 4.2 µM in [6] and 9.4 µM in test [7]. The Selectivity ratio in [8] was determined as 2.2. The half-inhibitory concentration (IC50) in the test with K562 turned out to be 25.8 µM; with A549, 5.6 µM; in the test on HeLa, 11.7 µM; with BJ it was 19 µM.
